Laboratory results reported in US20090029972A1, “Dibenzodiazepinone Analogues, Processes for Their Production and Their Use as Pharmaceuticals” (Ecopia BioSciences Inc, priority 2004, published 2009).
“Also recorded” adds a separate entry of the source.

How the values were obtained:
C6 glioblastoma [1] = assay: In vivo efficacy in glioma model, second series (treatment from day 10); set-up: species or system Mus musculus nude mice
Description: The aim of this study was to test whether Compounds 1 and 2 prevent or delay tumor growth in C6 glioblastoma cell-bearing mice, and to determine an effective dosage regimen. […]
(§1) Tumor Cell Line: The C6 cell line was cloned from a rat glial tumor induced by N-nitrosomethyurea (NMU) according to Premont et al. (Premont J, Benda P, Jard S., [3H] norepinephrine binding by rat glial cells in culture. Lack of correlation between binding and adenylate cyclase activation. Biochim Biophys Acta. 1975 Feb. 13; 381(2):368-76.) after series of alternate culture and animal passages. […] The cells were counted in a hemocytometer and their viability assessed by 0.25% trypan blue exclusion. […]
In a second series of experiments, treatment started at day 10 following inoculation of C6 cells when tumors became palpable (around 100 to 200 mm^3). […] Tumor volume was measured every second day until the end of the treatment using callipers. […]

in vivo = details: CD-1 nu/nu, mouse, iv
[2] = Pharmacokinetic profiles, plasma; assay type: in vivo, female Crl: CD1 mice; details: female, Crl: CD1, mouse, ip, 30 mg/kg
Experimental: Compounds 1 and 2 were separately dissolved in ethanol (5%), Polysorbate 80 (15%), PEG 400 (5%) and dextrose (5%) at a final concentration of 6 mg/ml (for all parenteral administration routes). For oral […], Compound 1 was solubilized in Cremophor® EL/Ethanol (50%:50%) at a final concentration of 6 mg/ml. Prior to dosing, animals (female Crl: CD1 mice; 6 weeks of age, 22-24 g) were weighed, randomly selected and assigned to the different treatment groups. Compound 1 was administered by the intravenous (iv), subcutaneous (sc), intraperitoneal (ip), or oral (po) route to the assigned animals. Compound 2 was administered by the intravenous (iv), or intraperitoneal (ip) route to the assigned animals. […] Samples were analysed by LC/MS/MS.
Plasma values of Compounds 1 and 2 falling below the limit of quantitation (LOQ) were set to zero.
The following pharmacokinetic parameters were calculated: area under the plasma concentration versus time curve from time zero to the last measurable concentration time point (AUC0-t), area under the plasma concentration versus time curve extrapolated to infinity (AUCinf), maximum observed plasma concentration (Cmax), time of maximum plasma concentration (tmax), apparent first-order terminal elimination rate constant (kel), apparent first-order terminal elimination half-life will be calculated as 0.693/kel (t1/2). […]

C6 glioblastoma [3] = assay: In vivo efficacy in glioma model, first series (treatment 24 hrs after inoculation); set-up: species or system Mus musculus nude mice; details: all treated groups (10-30 mg/kg i.p.), Anova and Dunnett's test
Experimental: The aim of this study was to test whether Compounds 1 and 2 prevent or delay tumor growth in C6 glioblastoma cell-bearing mice, and to determine an effective dosage regimen.
Animal experiments were performed according to ethical guidelines of animal experimentation (Charte du comité d′éthique du CNRS, juillet 2003) and the English guidelines for the welfare of animals in experimental neoplasia (WORKMAN, P., […], P., BALKWILL, F., et al. (1998). United Kingdom Coordinating Committee on Cancer Research (UKCCCR) Guidelines for the welfare of animals in experimental neoplasia (Second Edition, July 1997; British Journal of Cancer, 77:1-10). Any dead or apparently sick mice were promptly removed and replaced with healthy mice. Sick mice were euthanized upon removal from the cage. […]
as §1

[4] = for several days post-injection, ip and iv
[5] = system: HT-29, SF268, MDA-MB-231 and PC-3 cell lines; assay: In vitro cytotoxic activity, four cell lines together (average, comparison); assay type: cell-based; details: for anticancer activity compared with Compound 1: Table 12 cell lines
Experimental: (§2) Compounds were dissolved at 10 mM in DMSO. Dilution in vehicle to concentrations of 30, 10, 3, 1 and 0.3 μM were prepared immediately before assays. Depending on the cell line's growth characteristics, 4000-10000 cells were plated in two 96-wells pates (day 0) and incubated for 16 hours. The following day, propidium iodide was added to one of the two plates and fluorescence measured (Tz). Test compounds were added to the second plate, as well as vehicle control, and cells further incubated for 96 hours. Each compound was tested at each concentration and in triplicates. The equivalent cell number was determined after adding propidium iodide by measuring the signal by fluorescence (C for control).

SF268 (CNS) = assay: In vitro cytotoxic activity GI50, method (a), SF-268; assay type: cell-based; details: Homo sapiens, 96 hours incubation, propidium iodide
Experimental: as §2

[6] = system: PC-3 (prostate adenocarcinoma); assay: In vitro cytotoxic activity GI50, method (a), PC-3; assay type: cell-based; details: 96 hours incubation, propidium iodide
Experimental: as §2

[7] = system: HT-29 (colorectal carcinoma); assay: In vitro cytotoxic activity GI50, method (a), HT-29; assay type: cell-based; details: Homo sapiens, 96 hours incubation, propidium iodide
Experimental: as §2

[8] = system: MDA-MB-231 (mammary gland adenocarcinoma); assay: In vitro cytotoxic activity GI50, method (a), MDA-MB-231; assay type: cell-based; details: Homo sapiens, 96 hours incubation, propidium iodide
Experimental: as §2

## CC(C)=CCC/C(C)=C/CC/C(C)=C/CN1C(=O)c2cccc(O)c2Nc2c(O)cc(O)cc21 [Compound 1, 10-farnesyl-4,6,8-trihydroxy-5,10-dihydrodibenzo[b,e][1,4]diazepin-11-one]
C6 glioblastoma [1]; 20-30 mg/kg, FIG. 3
  Histological analysis of tumor sections: cell density of tumor treated with Compound 1 appears decreased; also recorded: cell density was decreased and the nuclei of remaining tumor cells appeared larger and pycnotic
C6 glioblastoma [1]; all treated groups (20-30 mg/kg i.p.), Anova and Dunnett's test
  mean value of the tumor volume of treated groups vs saline group: significantly reduced
In vivo
  MTD: 150 mg/kg
[2]
  AUC: 9.5 µM·h
C6 glioblastoma [3]
  mean value of the tumor volume of treated groups vs saline group: significantly reduced

## CC(C)=CCC/C(C)=C/CC/C(C)=C/CN1C(=O)c2cccc(O)c2N(C)c2c(O)cc(O)cc21 [Compound 2, 10-farnesyl-4,6,8-trihydroxy-5-methyl-5,10-dihydro-dibenzo[b,e][1,4]diazepin-11-one]
[4]
  weight losses: about 7%
In vivo
  MTD: ≥ 100 mg/kg

## CC(C)=CCC/C(C)=C/CC/C(C)=C/CN1C(=O)c2cccc(O)c2Nc2c1cc(O)c(Br)c2O [Compound 24, 10-(farnesyl)-7-bromo-4,6,8-trihydroxy-5,10-dihydro-dibenzo[b,e][1,4]diazepin-11-one]
[5]
  anticancer activity compared with Compound 1: generally more active than Compound 1

## CC(=O)Oc1cc(OC(C)=O)c2c(c1)N(C/C=C(\C)CC/C=C(\C)CCC=C(C)C)C(=O)c1cccc(OC(C)=O)c1N2 [Compound 25, 4,6,8-triacetoxy-10-farnesyl-5,10-dihydro-dibenzo[b,e][1,4]diazepin-11-one]
SF268 (CNS)
  GI50: 1.95 µM
[5]
  anticancer activity compared with Compound 1: generally more active than Compound 1
[5]; average of four cell lines, method (a)
  GI50: 3.82 µM
[6]
  GI50: 1.2 µM
[7]
  GI50: 9.33 µM
[8]
  GI50: 2.79 µM

## CC(C)CCCC(C)CCCC(C)CCN1C(=O)c2cccc(O)c2Nc2c(O)cc(O)cc21 (stereo not drawn) [Compound 23, 10-(3,7,11-trimethyldodecyl)-4,6,8-trihydroxy-5,10-dihydro-dibenzo[b,e][1,4]diazepin-11-one]
[5]
  anticancer activity compared with Compound 1: generally more active than Compound 1
